Activity calls are given as the source filed them.
How the values were obtained:
[1] = Luminescence Cell-Based Dose Confirmation HTS to Identify Inhibitors of Platelet Dense Granule Release. [Related pubchem assays: 1663 (Primary HTS), 1678 (Summary of Project)]; format: functional
[2] = molecular target: Luciferin 4-monooxygenase (Photinus pyralis, UniProt P08659); assay: inhibition of purified Photinus pyralis luciferase – biochemical, luminescence, dose response (AID 1891)
[3] = tested on: H9c2; assay: cells; format: functional, cell-based; details: Rattus norvegicus, H9c2, Myocardium;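 further: confirmatory concentration-response retest of ultra-high-throughput screening hits for modulation of myocardial damage; cell death induced by hydrogen peroxide oxidative stress; compound pretreatment for 60 min then peroxide exposure for 2 h; potency is for protecting the cells against peroxide damage rather than for killing them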
[4] = molecular target: T1, Protein skinhead-1 (Caenorhabditis elegans, UniProt P34707); format: functional
T1 sequence (P34707 whole entry): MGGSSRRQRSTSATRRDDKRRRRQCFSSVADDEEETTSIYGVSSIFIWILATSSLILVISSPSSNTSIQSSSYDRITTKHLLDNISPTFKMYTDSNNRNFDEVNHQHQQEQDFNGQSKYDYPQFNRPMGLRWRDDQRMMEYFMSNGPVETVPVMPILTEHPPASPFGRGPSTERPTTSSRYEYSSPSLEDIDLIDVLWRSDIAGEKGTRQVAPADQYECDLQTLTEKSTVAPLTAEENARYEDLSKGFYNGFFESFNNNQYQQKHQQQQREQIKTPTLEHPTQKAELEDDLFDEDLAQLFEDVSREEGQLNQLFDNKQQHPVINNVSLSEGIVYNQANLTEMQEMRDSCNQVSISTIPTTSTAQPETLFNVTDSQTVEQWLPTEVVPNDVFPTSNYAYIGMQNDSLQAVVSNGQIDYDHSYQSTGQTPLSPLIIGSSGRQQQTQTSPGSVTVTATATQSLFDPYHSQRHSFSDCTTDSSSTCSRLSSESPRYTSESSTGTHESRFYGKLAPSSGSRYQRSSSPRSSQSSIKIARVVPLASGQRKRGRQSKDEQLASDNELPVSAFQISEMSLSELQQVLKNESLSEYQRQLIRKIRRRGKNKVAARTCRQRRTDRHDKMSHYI

[5] = molecular target: Large T antigen (Simian virus 40, UniProt P03070); format: functional, Betapolyomavirus macacae;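 further: Confirmatory-stage PubChem screen for compounds that inhibit SV40 T antigen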
[6] = molecular target: T2, Rac GTPase-activating protein 1 (Homo sapiens, UniProt Q9H0H5); assay: blockers of MgcRacGAP-driven Rac1 GTP hydrolysis – biochemical, ADP Hunter fluorescence, primary and confirmatory, confirmation (AID 624330); format: functional
T2 sequence (Q9H0H5 whole entry): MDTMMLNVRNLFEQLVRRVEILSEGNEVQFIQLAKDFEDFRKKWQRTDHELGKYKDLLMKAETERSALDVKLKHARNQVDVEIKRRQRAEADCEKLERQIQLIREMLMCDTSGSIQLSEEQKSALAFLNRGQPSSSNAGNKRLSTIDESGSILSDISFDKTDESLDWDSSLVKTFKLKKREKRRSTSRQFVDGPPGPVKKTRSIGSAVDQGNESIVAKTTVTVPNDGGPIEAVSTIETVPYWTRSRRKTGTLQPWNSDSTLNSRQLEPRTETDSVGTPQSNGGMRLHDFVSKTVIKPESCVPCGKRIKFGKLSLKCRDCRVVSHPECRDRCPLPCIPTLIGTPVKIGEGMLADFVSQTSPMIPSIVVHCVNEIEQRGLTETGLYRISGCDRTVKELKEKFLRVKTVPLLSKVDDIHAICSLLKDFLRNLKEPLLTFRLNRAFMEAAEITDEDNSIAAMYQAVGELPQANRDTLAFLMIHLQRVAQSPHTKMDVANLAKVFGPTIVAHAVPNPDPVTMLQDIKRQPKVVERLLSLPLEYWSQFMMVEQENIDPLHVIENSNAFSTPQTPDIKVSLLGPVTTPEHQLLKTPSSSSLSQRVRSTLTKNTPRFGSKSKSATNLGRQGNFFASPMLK

[7] = molecular target: Cytochrome P450 2D6 (Homo sapiens, UniProt P10635);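 further: CYP2D6 member of a cytochrome P450 panel assay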
[8] = tested on: Streptococcus; assay: GAS UMAA2166 growth inhibition – luminescence, BacTiterGlo, counter-screen for streptokinase expression inhibitor project, dose response (AID 1915); format: functional, organism-based;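 further: potency for reduction of bacterial viability or growth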
[9] = tested on: Streptococcus sp. 'group A'; assay: Streptococcus pyogenes SK(-)GAS viability under kanamycin – luminescence, BacTiterGlo, confirmation, counter-screen for streptokinase expression inhibitor project, dose response (AID 1900); format: functional, organism-based
[10] = molecular target: T3, Streptokinase A (Streptococcus pyogenes serotype M1, UniProt P10520); assay: viability-normalized secreted streptokinase activity reduction – plasminogen activation absorbance, OD405, dose response (AID 1914); format: functional, Streptococcus pyogenes M1 GAS;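 further: secreted streptokinase activity via plasminogen activation per viability signal from cell pellet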
T3 sequence (P10520 whole entry): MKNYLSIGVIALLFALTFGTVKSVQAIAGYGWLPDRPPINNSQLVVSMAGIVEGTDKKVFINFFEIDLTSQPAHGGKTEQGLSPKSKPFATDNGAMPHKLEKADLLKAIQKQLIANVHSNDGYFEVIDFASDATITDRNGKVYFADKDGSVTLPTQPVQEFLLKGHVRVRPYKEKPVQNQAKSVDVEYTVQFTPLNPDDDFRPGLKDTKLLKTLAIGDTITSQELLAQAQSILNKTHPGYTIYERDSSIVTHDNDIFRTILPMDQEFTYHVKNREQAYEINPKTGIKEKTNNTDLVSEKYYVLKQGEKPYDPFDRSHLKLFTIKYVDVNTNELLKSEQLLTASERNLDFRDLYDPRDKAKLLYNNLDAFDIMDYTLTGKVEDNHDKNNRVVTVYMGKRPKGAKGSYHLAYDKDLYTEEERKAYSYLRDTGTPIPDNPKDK

[11] = molecular target: Heat shock protein HSP 90-alpha (Homo sapiens, UniProt P07900); format: functional, organism-based
[12] = molecular target: Paired box protein Pax-8 (Homo sapiens, UniProt Q06710); assay: PAX8 transcriptional activity inhibition in RMG-I – RMG-I cells, luciferase, cherry-pick, dose response (AID 687027); format: functional, cell-based;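 further: luciferase reporter driven by Pax8 target thyroperoxidase promoter measured by SteadyGlo luminescence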
[13] = cells; format: functional, cell-based
[14] = cells; format: functional, cell-based; remark: listed apart in the source

Sequence of Luciferin 4-monooxygenase (P08659 whole entry): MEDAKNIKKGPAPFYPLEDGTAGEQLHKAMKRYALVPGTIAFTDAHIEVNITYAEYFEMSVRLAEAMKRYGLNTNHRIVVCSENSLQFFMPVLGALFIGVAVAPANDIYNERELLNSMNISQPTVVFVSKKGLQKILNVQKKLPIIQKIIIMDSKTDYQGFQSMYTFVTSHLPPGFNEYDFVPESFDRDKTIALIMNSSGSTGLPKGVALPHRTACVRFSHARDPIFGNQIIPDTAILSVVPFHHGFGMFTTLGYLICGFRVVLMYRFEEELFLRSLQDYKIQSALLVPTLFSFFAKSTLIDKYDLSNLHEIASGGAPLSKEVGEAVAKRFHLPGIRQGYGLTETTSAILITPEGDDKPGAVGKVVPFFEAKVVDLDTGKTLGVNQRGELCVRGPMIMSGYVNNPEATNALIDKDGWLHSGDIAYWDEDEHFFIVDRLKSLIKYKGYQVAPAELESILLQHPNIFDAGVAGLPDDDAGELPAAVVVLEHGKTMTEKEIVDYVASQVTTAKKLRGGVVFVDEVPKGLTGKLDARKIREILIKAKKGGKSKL
Sequence of Paired box protein Pax-8 (Q06710 whole entry): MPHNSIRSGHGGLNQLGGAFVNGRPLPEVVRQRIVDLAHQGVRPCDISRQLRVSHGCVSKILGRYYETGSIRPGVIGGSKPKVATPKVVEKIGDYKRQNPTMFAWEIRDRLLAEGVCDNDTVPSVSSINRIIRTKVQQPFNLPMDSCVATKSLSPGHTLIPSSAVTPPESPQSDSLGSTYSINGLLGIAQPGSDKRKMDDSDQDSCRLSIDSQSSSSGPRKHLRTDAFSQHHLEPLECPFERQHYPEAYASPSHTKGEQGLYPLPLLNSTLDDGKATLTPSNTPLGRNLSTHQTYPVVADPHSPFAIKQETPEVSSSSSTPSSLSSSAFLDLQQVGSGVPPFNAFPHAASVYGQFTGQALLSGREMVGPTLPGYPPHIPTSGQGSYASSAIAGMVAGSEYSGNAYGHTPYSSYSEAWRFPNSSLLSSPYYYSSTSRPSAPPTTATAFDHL
Sequence of Large T antigen (P03070 whole entry): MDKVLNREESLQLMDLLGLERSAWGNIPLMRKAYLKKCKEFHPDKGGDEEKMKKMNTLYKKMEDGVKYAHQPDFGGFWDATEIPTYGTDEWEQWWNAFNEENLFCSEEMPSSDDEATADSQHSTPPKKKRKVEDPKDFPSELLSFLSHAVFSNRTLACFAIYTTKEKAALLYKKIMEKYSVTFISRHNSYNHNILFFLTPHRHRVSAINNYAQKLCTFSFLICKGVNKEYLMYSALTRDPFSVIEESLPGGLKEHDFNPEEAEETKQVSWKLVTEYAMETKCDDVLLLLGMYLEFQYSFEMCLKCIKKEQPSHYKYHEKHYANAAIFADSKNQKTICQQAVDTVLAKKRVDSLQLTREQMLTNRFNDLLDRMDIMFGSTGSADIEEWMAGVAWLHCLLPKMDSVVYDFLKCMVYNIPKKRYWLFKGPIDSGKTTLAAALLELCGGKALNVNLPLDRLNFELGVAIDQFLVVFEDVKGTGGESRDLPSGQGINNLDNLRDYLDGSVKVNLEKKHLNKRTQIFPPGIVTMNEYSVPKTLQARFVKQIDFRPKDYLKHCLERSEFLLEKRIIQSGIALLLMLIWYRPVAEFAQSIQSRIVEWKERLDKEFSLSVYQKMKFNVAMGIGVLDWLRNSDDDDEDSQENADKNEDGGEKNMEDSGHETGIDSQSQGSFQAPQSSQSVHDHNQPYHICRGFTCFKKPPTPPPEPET
Sequence of Cytochrome P450 2D6 (P10635 whole entry): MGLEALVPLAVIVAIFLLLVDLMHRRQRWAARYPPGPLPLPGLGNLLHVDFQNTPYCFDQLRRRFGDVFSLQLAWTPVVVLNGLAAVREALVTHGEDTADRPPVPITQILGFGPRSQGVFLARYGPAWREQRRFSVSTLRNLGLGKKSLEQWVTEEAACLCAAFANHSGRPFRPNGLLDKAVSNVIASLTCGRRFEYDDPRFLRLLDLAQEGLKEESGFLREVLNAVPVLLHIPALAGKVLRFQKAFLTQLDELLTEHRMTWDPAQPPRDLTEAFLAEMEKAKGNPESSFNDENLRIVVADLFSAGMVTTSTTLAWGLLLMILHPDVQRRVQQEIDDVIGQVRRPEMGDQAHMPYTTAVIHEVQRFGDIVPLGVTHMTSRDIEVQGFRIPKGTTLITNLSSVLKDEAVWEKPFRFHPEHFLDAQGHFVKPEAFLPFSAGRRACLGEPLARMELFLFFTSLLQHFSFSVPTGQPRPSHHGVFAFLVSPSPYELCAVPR

Cn1cc(S(=O)(=O)N2CCOCC2)cc1C(=O)NCCc1ccccc1
EC50 [1]: > 112 µM (not active) | EC50 [2]: > 112 µM (not active)

Cc1cc(C)c(C)c(S(=O)(=O)N2CCN(C(=O)c3cc(O)nc4ccccc34)CC2)c1C
IC50 [3]: > 79 µM (inactive)

CS(=O)(=O)N1CCC(Oc2ccccc2C(=O)N2CCN(CC3CC3)CC2)CC1
EC50 [1]: > 112 µM (not active) | EC50 [2]: > 112 µM (not active)

COc1ccccc1C(=O)Nc1ccc2c(c1)CCCN2C(=O)c1ccccc1
EC50 [1]: 19.1 µM (active) | EC50 [2]: 0.712 µM (active)

Fc1cc(Br)ccc1COc1ccc(-c2nnco2)cc1
IC50 [4]: > 100 µM (inactive)

COc1ccc(OC)c(Nc2nc(C3CC3)nc3c2nnn3Cc2ccccc2)c1
EC50 [1]: > 112 µM (not active) | EC50 [2]: > 112 µM (not active)

CCc1ccc(N2CC(C(=O)OCC(=O)c3c(N)n(CC(C)C)c(=O)n(C)c3=O)CC2=O)cc1 (stereo unspecified)
EC50 [1]: > 112 µM (not active) | EC50 [2]: > 112 µM (not active)

CCCCn1nc(C(=O)Oc2ccc3c(C)cc(=O)oc3c2)c2ccccc2c1=O
IC50 [3]: > 79 µM (inactive)

O=C(Cn1[nH]c(=O)c2ccccc2c1=O)OCC(=O)N1CCc2ccccc2C1
IC50 [3]: 28.5 µM (active)

Cn1c(=O)c2c(nc(Br)n2Cc2ccc3ccccc3c2)n(C)c1=O
IC50 [3]: 13.7 µM (active)

CCOc1nc(-c2ccncc2)nc2ccccc12
IC50 [4]: > 100 µM (inactive)

CCC(C)N(C(=O)COC(=O)Cc1nnc(O)c2ccccc12)C1CCS(=O)(=O)C1 (stereo unspecified)
IC50 [3]: > 79 µM (inactive)

Brc1ccc(-c2cn3cccnc3n2)cc1
IC50 [4]: > 100 µM (inactive)

Cn1c(=O)[nH]c(=O)c2c1nc(N1CCCCCC1)n2CC(N)=O
EC50 [1]: > 112 µM (not active) | EC50 [2]: > 112 µM (not active)

Clc1ccc(-c2nnc(-c3cccnc3)o2)cc1
IC50 [4]: 30.1 µM (active)

CC1CCCN(C(=O)c2ccncc2)C1 (stereo unspecified)
IC50 [4]: > 100 µM (inactive)

COc1cccc2cc(C(C)N(CCCN3CCOCC3)C(=O)Nc3ccccc3)oc12 (stereo unspecified)
EC50 [1]: > 112 µM (not active) | EC50 [2]: > 112 µM (not active)

Cc1ccccc1NC(=O)CSC1=C(C#N)C(c2ccsc2)CC(=O)N1 (stereo unspecified)
IC50 [4]: > 100 µM (inactive)

O=C1N=C(NCc2ccccc2)S/C1=C/c1ccc(O)cc1
IC50 [5]: 11.7 µM (active) | IC50 [6]: 18.9 µM (active)

CCCc1nc2ccccc2c(=O)n1-c1ccc(OC)cc1
IC50 [4]: > 100 µM (inactive) | AC50 [7]: 14.1 µM (inconclusive)

Cc1ccc2sc(NNC(=O)c3ccc4c(c3)OCCO4)nc2c1C
EC50 [8]: 18.3 µM (active) | EC50 [9]: 13 µM (active) | EC50 [10]: > 150 µM (not active) | IC50 [3]: 32.5 µM (inactive)

CC1=CC(C)CC(C)OC(=O)CC(c2ccc(O)cc2)NC(=O)C(Cc2c(Br)[nH]c3ccccc23)N(C)C(=O)C(C)NC(=O)C(C)C1 (stereo unspecified)
AC50 [11]: 4.09 µM (active) | AC50 [12]: < 0.26 µM (active)

C[C@@]12C(=O)Nc3ccc(Br)cc3C(=O)N1[C@H]1c3ccccc3OC[C@@H]1[C@@H]2c1ccccc1
AC50 [11]: 0.427 µM (active)

CC(=O)Nc1cc(-c2cccc(NS(C)(=O)=O)c2)cn2c(-c3cccc(C(C)=O)c3)cnc12
IC50 [3]: 12.8 µM (active)

COc1ccc(CNC(=S)N/N=C/c2ccc(O)c(OC)c2)cc1
EC50 [13]: > 350 µM (not active) | IC50 [5]: 27.7 µM (active) | EC50 [14]: > 350 µM (not active)

Cn1ncc(Cl)c1C(=O)N/N=C/c1ccccn1
IC50 [3]: 71.6 µM (inactive)

COc1cccc(/C=N/Nc2ncnc3scc(-c4ccccc4)c23)c1OC
IC50 [3]: > 79 µM (inactive)

C[C@@H]1CCCCO[C@@H](CN(C)Cc2ccc(Cl)c(Cl)c2)[C@H](C)CN([C@@H](C)CO)C(=O)c2cc(NC(=O)Cc3ccccc3)ccc2O1
AC50 [12]: 4.54 µM (active)

Cc1nn(-c2ccc([N+](=O)[O-])cc2)c(O)c1/C=N/CCN1CCN(C(=O)c2cccc(F)c2)CC1
AC50 [11]: 5.99 µM (active)

CCNc1nc(Cl)nc(NC(C)C)n1 [ATRAZINE]
EC50 [1]: > 112 µM (not active) | EC50 [2]: > 112 µM (not active)

Reference: ChEMBL document CHEMBL1201862, “PubChem BioAssay data set” (2004)
